The target of this test is G-protein coupled receptor 35 (Homo sapiens, UniProt Q9HC97). The test can be described thus: GPR35 antagonists blocking zaprinast-driven arrestin recruitment, primary screen, imaging, U2OS, beta-arrestin-GFP, zaprinast agonist (AID 2058). On the technique in general: Arrestin recruitment assays detect the binding of arrestin to an activated receptor.

Where a name gives a salt, the structure may show the parent alone.

Chain of G-protein coupled receptor 35 (Q9HC97 whole entry): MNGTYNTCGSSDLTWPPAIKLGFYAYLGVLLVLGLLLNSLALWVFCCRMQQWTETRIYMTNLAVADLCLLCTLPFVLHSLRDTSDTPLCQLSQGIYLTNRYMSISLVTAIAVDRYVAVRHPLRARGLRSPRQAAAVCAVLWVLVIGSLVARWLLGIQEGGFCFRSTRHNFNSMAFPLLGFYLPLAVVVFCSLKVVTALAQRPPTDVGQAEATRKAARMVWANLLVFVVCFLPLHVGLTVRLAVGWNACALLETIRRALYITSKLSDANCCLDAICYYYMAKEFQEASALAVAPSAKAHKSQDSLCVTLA

In general, IC50 refers to the concentration at which inhibition is half-maximal. A higher IC50 goes with lower potency. As to `COc1cccc(C2C3CN(C)CCC3=C(C#N)C(=N)C2(C#N)C#N)c1OC` (stereo not given) [6-Amino-8-(2,3-dimethoxy-phenyl)-2-methyl-2,3,8,8a-tetrahydro-1H-isoquinoline-5,7,7-tricarbonitrile], the IC50 worked out at 2.74 µM.

`CN1CCC2=C(C#N)C(=N)C(C#N)(C#N)C(c3ccsc3)C2C1` (stereo not given) [6-azanyl-2-methyl-8-thiophen-3-yl-1,3,8,8a-tetrahydroisoquinoline-5,7,7-tricarbonitrile] showed an IC50 of 0.991 µM. Next, `CN1CCC2=C(C#N)C(=N)C(C#N)(C#N)C(c3cccc(Cl)c3Cl)C2C1` (stereo not given) [6-azanyl-8-[2,3-bis(chloranyl)phenyl]-2-methyl-1,3,8,8a-tetrahydroisoquinoline-5,7,7-tricarbonitrile]: 12 µM. `CC1(C)Cc2c(ccc3ccccc23)C(CC(=O)N2CCCCC2)=N1` [(2Z)-2-(2,2-dimethyl-1,3-dihydrobenzo[f]isoquinolin-4-ylidene)-1-(1-piperidinyl)ethanone;hydrochloride]: the IC50 was 11 µM. With `Oc1ccc(CN=Nc2nc(-c3ccccc3F)nc3ccccc23)c(O)c1` [MLS000778210], the IC50 came out at 3.08 µM.

The record behind these values is BindingDB's records for doi:10.7270/Q2TQ5ZZB (Burnham Center For Chemical Genomics, 2010).
